Measured values taken from patent US10000473B2, “Indazole derivatives useful as glucagon receptor antagonists” (Janssen Pharmaceutica NV, priority 2016, dated 2018).
pKi: −log10 of the molar value.

Biological target: T1, human GCGR (Homo sapiens, UniProt P47871)
T1 construct: expressed in transfected cells; host or cells: HEK293 (hGluc-1HEK), pcDNA3.1, G418 selection
Test: Cellular functional assay, cAMP readout (glucagon-stimulated cAMP, LANCE TR-FRET)
Assay type: cell-based
Details: HEK293 cells stably expressing full-length human GCGR; glucagon 100 pM; IC50 converted to Ki; read-out: Inhibition of cAMP Ki

T1 sequence (P47871 26-477): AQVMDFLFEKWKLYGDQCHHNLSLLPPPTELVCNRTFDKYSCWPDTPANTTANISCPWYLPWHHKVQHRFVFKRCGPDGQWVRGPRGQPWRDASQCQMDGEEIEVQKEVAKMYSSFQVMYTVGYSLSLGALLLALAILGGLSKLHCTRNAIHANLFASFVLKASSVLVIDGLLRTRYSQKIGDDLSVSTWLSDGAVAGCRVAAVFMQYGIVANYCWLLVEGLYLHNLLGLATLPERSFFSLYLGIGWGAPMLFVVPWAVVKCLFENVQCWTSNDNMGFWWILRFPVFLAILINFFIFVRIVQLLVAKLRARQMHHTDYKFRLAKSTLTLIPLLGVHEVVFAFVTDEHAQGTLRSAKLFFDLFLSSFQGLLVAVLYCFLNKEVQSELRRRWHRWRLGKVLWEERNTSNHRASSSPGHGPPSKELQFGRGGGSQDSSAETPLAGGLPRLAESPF

Row | SMILES | pKi
1 | CC(C)(C)c1ccc(-c2ccc3nn(C(CC4CCCCC4)c4ccc(C(=O)NCCC(=O)O)cc4)cc3c2)cc1 (stereo not drawn) [Compound #228, 3-(4-(1-(5-(4-(tert-Butyl)phenyl)-2H-indazol-2-yl)-2-cyclohexylethyl)benzamido)propanoic acid] | 6.89
2 | COc1c(-c2ccc(C(F)(F)F)cc2Cl)ccc2c1cnn2C(CC(C)C)c1ccc(C(=O)NCCC(=O)O)nc1 (stereo not drawn) [Compound #250, 3-(5-(1-(5-(2-Chloro-4-(trifluoromethyl)phenyl)-4-methoxy-1H-indazol-1-yl)-3-methylbutyl)picolinamido)propanoic acid] | 7.26
3 | O=C(O)CCNC(=O)c1ccc(C(CCc2ccc(Cl)cc2)n2cc3cc(-c4ccc(C(F)(F)F)cc4)ccc3n2)cc1 (stereo not drawn) [compound 200] | 7.10
4 | COc1c(-c2ccc(C(F)(F)F)cc2Cl)ccc2nn([C@@H](CC(C)C)c3ccc(C(=O)NCCC(=O)O)cc3)cc12 [Compound #150, 3-[[4-[(1S)-1-[5-[2-Chloro-4-(trifluoromethyl)phenyl]-4-methoxy-indazol-2-yl]-3-methyl-butyl]benzoyl]amino]propanoic acid] | 7.46
5 | Cc1cc(C(F)(F)F)ccc1-c1ccc2c(cnn2C(CC(C)C)c2ccc(C(=O)NCCC(=O)O)nc2)c1C (stereo not drawn) [Compound #258, 3-(5-(3-Methyl-1-(4-methyl-5-(2-methyl-4-(trifluoromethyl)phenyl)-1H-indazol-1-yl)butyl)picolinamido)propanoic acid] | 7.19
6 | Cc1cc(C(F)(F)F)ccc1-c1cc2cn(C(CC(C)C)c3ccc(C(=O)NCCC(=O)O)nc3)nc2cc1C (stereo not drawn) [Compound #187, 3-[[5-[3-Methyl-1-[6-methyl-5-[2-methyl-4-(trifluoromethyl)phenyl]indazol-2-yl]butyl]pyridine-2-carbonyl]amino]propanoic acid] | 7.52
7 | O=C(O)CCNC(=O)c1ccc(C(C2CCCCC2)n2cc3cc(-c4ccc(C(F)(F)F)cc4Cl)ccc3n2)cc1 (stereo not drawn) [compound 98] | 7.08
8 | COc1c(-c2ccc(C(F)(F)F)cc2Cl)ccc2nn([C@H](CC(C)C)c3ccc(C(=O)NCCC(=O)O)cc3)cc12 [Compound #191, 3-[[4-[(1R)-1-[5-[2-Chloro-4-(trifluoromethyl)phenyl]-4-methoxy-indazol-2-yl]-3-methyl-butyl]benzoyl]amino]propanoic acid] | 7.46
9 | O=C(O)CCNC(=O)c1ccc(C(CCC(F)(F)C(F)(F)F)n2cc3cc(-c4ccc(C(F)(F)F)cc4)ccc3n2)cc1 (stereo not drawn) [compound 65] | 6.62
10 | Cc1cc(C(F)(F)F)ccc1-c1cc2cn(C(CC(C)C)c3ccc(C(=O)NCCC(=O)O)nc3)nc2cc1Cl (stereo not drawn) [Compound #176, 3-[[5-[1-[6-Chloro-5-[2-methyl-4-(trifluoromethyl)phenyl]indazol-2-yl]-3-methyl-butyl]pyridine-2-carbonyl]amino]propanoic acid] | 7.30
11 | Cc1cc(C(F)(F)F)ccc1-c1cc2cn(C(CC(C)C)c3ccc(C(=O)NCCC(=O)O)cc3)nc2cc1Cl (stereo not drawn) [Compound #30, 3-[[4-[1-[6-Chloro-5-[2-methyl-4-(trifluoromethyl)phenyl]indazol-2-yl]-3-methyl-butyl]benzoyl]amino]propanoic acid] | 7.36
12 | CC(C)CC(c1ccc(C(=O)NCCC(=O)O)cc1)n1cc2cc(-c3ccc4ncccc4c3)ccc2n1 (stereo not drawn) [compound 121] | 6.15
13 | CC(C)(C)CC(c1ccc(C(=O)NCCC(=O)O)cc1)n1cc2cc(-c3ccc(C(F)(F)F)cc3)ccc2n1 (stereo not drawn) [compound 61] | 7.28
14 | O=C(O)CCNC(=O)c1ccc(C(CCC2CCCCC2)n2cc3cc(-c4ccc(C(F)(F)F)cc4)ccc3n2)cc1 (stereo not drawn) [compound 133] | 7.04
15 | Cc1cc(C(F)(F)F)ccc1-c1ccc2nn([C@@H](CC(C)C)c3ccc(C(=O)NCCC(=O)O)cc3)cc2c1C [Compound #156, 3-[[4-[(1S)-3-Methyl-1-[4-methyl-5-[2-methyl-4-(trifluoromethyl)phenyl]indazol-2-yl]butyl]benzoyl]amino]propanoic acid] | 7.66
16 | Cc1cc(C(F)(F)F)ccc1-c1cc2cnn(C(CC(C)C)c3ccc(C(=O)NCCC(=O)O)nc3)c2cc1Cl (stereo not drawn) [Compound #146, 3-[[5-[1-[6-Chloro-5-[2-methyl-4-(trifluoromethyl)phenyl]indazol-1-yl]-3-methyl-butyl]pridine-2-carbonyl]amino]propanoic acid] | 6.80
17 | CCOc1c(-c2ccc(C(F)(F)F)cc2Cl)ccc2c1cnn2C(CC(C)C)c1ccc(C(=O)NCCC(=O)O)nc1 (stereo not drawn) [Compound #179, 3-(5-(1-(5-(2-Chloro-4-(trifluoromethyl)phenyl)-4-ethoxy-1H-indazol-1-yl)-3-methylbutyl)picolinamido)propanoic acid] | 7.62
18 | Cc1cc(C(F)(F)F)ccc1-c1cc2cnn(C(CC(C)C)c3ccc(C(=O)NCCC(=O)O)nc3)c2cc1C (stereo not drawn) [Compound #214, 3-[[5-[3-Methyl-1-[6-methyl-5-[2-methyl-4-(trifluoromethyl)phenyl]indazol-1-yl]butyl]pyridine-2-carbonyl]amino]propanoic acid] | 7.49

Second part, the compound after the results:

Row | pKi | SMILES
19 | 6.76 | O=C(O)CCNC(=O)c1ccc(C(CCC(F)(F)F)n2ncc3cc(-c4cc5ccccc5o4)ccc32)cc1 (stereo not drawn) [Compound #11, 3-[[4-[1-[5-(Benzofuran-2-yl)indazol-1-yl]-4,4,4-trifluorobutyl]benzoyl]amino]propanoic acid]
20 | 6.94 | CC(C)CC(c1ccc(C(=O)NCCC(=O)O)cc1)n1ncc2c(Cl)c(-c3ccc(C(F)(F)F)cc3Cl)ccc21 (stereo not drawn) [Compound #141, 3-(4-(1-(4-Chloro-5-(2-chloro-4-(trifluoromethyl)phenyl)-1H-indazol-1-yl)-3-methylbutyl)benzamido)propanoic acid]
21 | 6.70 | CCCCCCC(c1ccc(C(=O)NCCC(=O)O)nc1)n1ncc2cc(-c3ccc(Cl)cc3C)ccc21 (stereo not drawn) [compound 244]
22 | 6.61 | CC(C)CC(c1ccc(C(=O)NCCC(=O)O)cc1)n1ncc2c(Cl)c(-c3ccc(C(F)(F)F)cc3)ccc21 (stereo not drawn) [Compound #67, 3-(4-(1-(4-Chloro-5-(4-(trifluoromethyl)phenyl)-1H-indazol-1-yl)-3-methylbutyl)benzamido)propanoic acid]
23 | 6.84 | CC(C)CCC(c1ccc(C(=O)NCCC(=O)O)cc1)n1ncc2cc(-c3ccc(C(C)(C)C)cc3)ccc21 (stereo not drawn) [Compound #23, 3-(4-(1-(5-(4-(tert-Butyl)phenyl)-1H-indazol-1-yl)-4-methylpentyl)benzamido)propanoic acid]
24 | 6.10 | COc1ccc2cc(-c3ccc4c(cnn4C(CC(C)C)c4ccc(C(=O)NCCC(=O)O)cc4)c3)ccc2c1 (stereo not drawn) [compound 222]
25 | 7.21 | CC(C)CC(c1ccc(C(=O)NCCC(=O)O)cc1)n1ncc2cc(-c3cc4ccccc4s3)ccc21 (stereo not drawn) [compound 73]
26 | 7.24 | Cc1ccc(-c2ccc3nn(C(CC(C)C)c4ccc(C(=O)NCCC(=O)O)cc4)cc3c2C)c(Cl)c1 (stereo not drawn) [Compound #148, 3-(4-(1-(5-(2-Chloro-4-methylphenyl)-4-methyl-2H-indazol-2-yl)-3-methylbutyl)benzamido)propanoic acid]
27 | 5.96 | CC(C)CC(c1ccc(C(=O)NCCC(=O)O)cc1)n1ncc2cc(-c3ccccc3)ccc21 (stereo not drawn) [Compound #4]
28 | 6.72 | Cc1cc(Cl)ccc1-c1ccc2nn(C(CC(C)C)c3ccc(C(=O)NCCC(=O)O)cc3)cc2c1 (stereo not drawn) [Compound #168]
29 | 7.66 | COc1c(-c2ccc(C(F)(F)F)cc2C)ccc2c1cnn2[C@@H](CC(C)C)c1ccc(C(=O)NCCC(=O)O)cc1 [Compound #192, 3-[[4-[(1S)-1-[4-Methoxy-5-[2-methyl-4-(trifluoromethyl)phenyl]indazol-1-yl]-3-methyl-butyl]benzoyl]amino]propanoic acid]
30 | 7.12 | CCCCCCC(c1ccc(C(=O)NCCC(=O)O)nc1)n1cc2cc(-c3ccc(Cl)cc3C)ccc2n1 (stereo not drawn) [compound 203]
31 | 6.12 | CC(C)CC(c1ccc(C(=O)NCCC(=O)O)cc1)n1ncc2cc(-c3ccc4cnn(C)c4c3)ccc21 (stereo not drawn) [compound 116]
32 | 6.71 | Cc1cc2nn(C(CC(C)C)c3ccc(C(=O)NCCC(=O)O)cc3)cc2cc1-c1ccc(C(F)(F)F)cc1 (stereo not drawn) [Compound #134, 3-[[4-[3-Methyl-1-[6-methyl-5-[4-(trifluoromethyl)phenyl]indazol-2-yl]butyl]benzoyl]amino]propanoic acid]
33 | 6.10 | CC(C)CC(c1ccc(C(=O)NCCC(=O)O)cc1)n1ncc2cc(-c3ccc4ncccc4c3)ccc21 (stereo not drawn) [Compound #7]
34 | 7.19 | O=C(O)CCNC(=O)c1ccc(C(CCC(F)(F)F)n2cc3cc(-c4ccc(C(F)(F)F)cc4Cl)ccc3n2)cc1 (stereo not drawn) [Compound #16, 3-[[4-[1-[5-[2-Chloro-4-(trifluoromethyl)phenyl]indazol-2-yl]-4,4,4-trifluorobutyl]benzoyl]amino]propanoic acid]
35 | 6.76 | O=C(O)CCNC(=O)c1ccc(C(CC2CCCC2)n2ncc3cc(-c4ccc(C(F)(F)F)cc4)ccc32)cc1 (stereo not drawn) [compound 208]
36 | 6.12 | CC(C)CC(c1ccc(C(=O)NCCC(=O)O)cc1)n1cc2cc(-c3ccsc3)ccc2n1 (stereo not drawn) [compound 51]
37 | 6.52 | CCCC(c1ccc(C(=O)NCCC(=O)O)cc1)n1ncc2cc(-c3ccc(C(F)(F)F)cc3)ccc21 (stereo not drawn) [compound 60]
38 | < 5.28 | CC(C)CC(c1ccc(C(=O)NCCC(=O)O)cc1)n1ncc2cc(-c3cnn(C)c3)ccc21 (stereo not drawn) [compound 164]
39 | 7.00 | COc1c(-c2ccc(C(F)(F)F)cc2Cl)ccc2c1cnn2C(CC(C)C)c1ccc(C(=O)NCCC(=O)O)cc1 (stereo not drawn) [Compound #103, 3-(4-(1-(5-(2-Chloro-4-(trifluoromethyl)phenyl)-4-methoxy-1H-indazol-1-yl)-3-methylbutyl)benzamido)propanoic acid]
40 | 6.68 | CCCCCCC(c1ccc(C(=O)NCCC(=O)O)cc1)n1ncc2cc(-c3ccc(Cl)cc3C)ccc21 (stereo not drawn) [compound 245]
41 | 6.88 | CCCCCC(c1ccc(C(=O)NCCC(=O)O)cc1)n1cc2cc(-c3ccc(C(F)(F)F)cc3)ccc2n1 (stereo not drawn) [compound 171]
42 | 6.72 | CC(C)CC(c1ccc(C(=O)NCCC(=O)O)cc1)n1ncc2cc(-c3ccc(Cl)cc3Cl)ccc21 (stereo not drawn) [Compound #9, 3-(4-(1-(5-(2,4-Dichlorophenyl)-1H-indazol-1-yl)-3-methylbutyl)benzamido)propanoic acid]
